# Test results from article PMC8132073 (Journal of Applied Glycoscience, 2020).
# Tests used:
# [1] = target: T1, KoRha (Klebsiella oxytoca, UniProt A0A0J9X262); assay: p-nitrophenol release, absorbance […] nm; type: biochemical; settings: 100 mM sodium phosphate pH 7.0, 30 °C
# T1 sequence (A0A0J9X262 1-523): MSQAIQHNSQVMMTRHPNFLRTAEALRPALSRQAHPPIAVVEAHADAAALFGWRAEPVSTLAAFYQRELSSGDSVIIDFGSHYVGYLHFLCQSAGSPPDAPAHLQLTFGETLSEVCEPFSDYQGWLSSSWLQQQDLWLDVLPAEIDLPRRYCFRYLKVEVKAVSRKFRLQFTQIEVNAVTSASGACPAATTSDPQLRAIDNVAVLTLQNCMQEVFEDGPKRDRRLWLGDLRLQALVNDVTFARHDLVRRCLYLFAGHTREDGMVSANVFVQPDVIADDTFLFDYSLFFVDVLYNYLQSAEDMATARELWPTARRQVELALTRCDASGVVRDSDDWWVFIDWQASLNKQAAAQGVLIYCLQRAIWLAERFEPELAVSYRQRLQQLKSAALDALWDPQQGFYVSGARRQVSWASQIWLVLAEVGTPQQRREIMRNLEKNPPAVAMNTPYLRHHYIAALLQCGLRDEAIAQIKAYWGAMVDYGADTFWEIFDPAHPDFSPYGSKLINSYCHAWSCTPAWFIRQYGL
# [2] = target: T2, BsRhaA (Bacillus sp. GL1, UniProt Q93RE8); assay: p-nitrophenol release, absorbance […] nm; type: biochemical; settings: […] sodium phosphate pH […] °C
# T2 sequence (Q93RE8 1-886): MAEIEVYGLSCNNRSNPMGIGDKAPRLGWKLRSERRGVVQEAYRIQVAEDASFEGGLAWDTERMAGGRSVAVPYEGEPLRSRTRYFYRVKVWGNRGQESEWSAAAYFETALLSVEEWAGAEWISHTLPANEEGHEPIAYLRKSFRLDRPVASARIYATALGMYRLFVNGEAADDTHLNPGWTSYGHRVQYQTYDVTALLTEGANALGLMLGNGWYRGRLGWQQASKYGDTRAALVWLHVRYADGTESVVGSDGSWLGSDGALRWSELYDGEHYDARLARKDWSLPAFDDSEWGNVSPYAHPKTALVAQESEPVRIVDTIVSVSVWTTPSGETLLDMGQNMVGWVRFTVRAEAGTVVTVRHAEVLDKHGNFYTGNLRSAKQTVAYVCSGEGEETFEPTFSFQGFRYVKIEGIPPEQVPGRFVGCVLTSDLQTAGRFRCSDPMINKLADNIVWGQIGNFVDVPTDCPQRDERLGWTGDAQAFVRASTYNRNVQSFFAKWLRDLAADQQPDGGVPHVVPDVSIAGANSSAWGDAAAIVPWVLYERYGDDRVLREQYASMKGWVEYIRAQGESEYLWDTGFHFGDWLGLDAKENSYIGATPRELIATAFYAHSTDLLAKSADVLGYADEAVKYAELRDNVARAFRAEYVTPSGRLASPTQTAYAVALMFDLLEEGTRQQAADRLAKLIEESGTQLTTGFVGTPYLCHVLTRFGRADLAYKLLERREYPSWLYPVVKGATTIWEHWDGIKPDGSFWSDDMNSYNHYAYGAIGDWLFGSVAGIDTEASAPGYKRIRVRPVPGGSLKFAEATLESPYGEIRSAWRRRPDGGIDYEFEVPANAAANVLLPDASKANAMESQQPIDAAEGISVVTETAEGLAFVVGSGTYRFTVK
compound,measurement,setting,value
"C[C@@H]1O[C@@H](Oc2ccc([N+](=O)[O-])cc2)[C@H](O)[C@H](O)[C@H]1O [pNP-α-L-Rha, 4-nitrophenyl-α-L-rhamnopyranoside]","p-nitrophenol release, absorbance 405 nm",[1],All four α-L-Rha-ases exhibited α-L-rhamnosyl-hydrolyzing and weak α-L-mannosyl-hydrolyzing activity
same,"p-nitrophenol release, absorbance 405 nm",[2],All four α-L-Rha-ases exhibited α-L-rhamnosyl-hydrolyzing and weak α-L-mannosyl-hydrolyzing activity
